# Test results as given in US9980967B1, “Method for overcoming drug resistance of EGFR mutation and cancerous stemness of human non-small cell lung carcinoma” (NATIONAL CHIAO TUNG UNIVERSITY, priority 2017, dated 2018).
# Key:
# A549 cells = assay: MTT cell viability assay in A549 cells; assay type: cell-based, human; conditions: 0~40 μM for 24 hours, compared with Gefitinib
# Method: After treatment, the cells were re-cultured in fresh medium for 2 days. The cell viability was analyzed by MTT assays. The results were obtained from three independent experiments and the bar represents the mean±S.E.M. ***p<0.001 indicates significant difference between Gefitinib and SP101 treated samples.
# A549 (ATCC number: CCL-185) was a non-small cell lung carcinoma cell line which expressed wild type EGFR and with K-Ras mutation (G12S). H1975 (ATCC number: CRL-5908) was a non-small cell lung carcinoma cell line which expressed EGFR L858R/T790M mutation. Oct4 and Nanog overexpression in A549-ON presented the properties of cancer stem-like cells, as well as epithelial-mesenchymal transdifferentiation. PLC26 was lung cancer cells that separated from pleural effusion of a clinical lung cancer patient (IRB number: 103-011-E). A549-ON cells were cultured in DMEM medium. A549 and H1975 cells were maintained in RPMI-1640 medium. […]
# Please refer to FIG. 12. […] To compare the cell viability of SP101 and Gefitinib in K-Ras mutation-drug resistant A549 and A549-ON cell lines, the cells were treated with 0˜40 μM SP101 or Gefitinib for 24 hours, and analyzed by MTT assays. […] To determine the effect of SP101 and Gefitinib on the cell viability in cancer stem-like A549-ON cells, the cells were treated with 10˜40 μM SP101 or Gefitinib for 24 hours, and analyzed by MTT assays.
# H1975 xenograft tumors = assay: Xenografted human NSCLC (H1975) tumors in nude mice; assay type: in vivo; conditions: 30 mg/kg once per four days
# Source text: The results were obtained from twelve mice and the bar represents the mean±S.E.M.**p<0.01, indicating significant difference between control and SP101 treatment group mice. ###p<0.001 indicates significant differences between SP101 and Gefitinib-treated mice.
# The tumor weight was means±*p<0.05 indicating significant differences between control and SP101 treatment group mice. #p<0.05 indicates significant differences between SP101 and Gefitinib-treated mice.
# NSCLC tumors in nude mice were established. Seven-week-old nude mice were subcutaneously injected with 3×10^6 H1975 cells. Please refer to FIGS. 7 and 8. After 7 to 10 days inoculation, the nude mice were treated with vehicle or 30 mg/kg SP101 or 30 mg/kg Gefitinib once per four days and tumor sizes in the nude mice were measured every four days. The nude mice were sacrificed after treatment for 16 days; the tumors were harvested to measure tumor volume/weight and further analyze tumor tissues. […] Please refer to FIG. 9.
# PLC26 cells = assay: Annexin V/PI apoptosis flow cytometry in PLC26 cells; assay type: cell-based, human; conditions: 30 μM for 24 hours
# Method: At the end of treatment, apoptosis was measured by Annexin V-PI staining using flow cytometry analysis. The population of Annexin V+/PI− cells represents cells undergoing early apoptosis (low right), whereas the fraction of Annexin V+/PI+ cell are those undergoing late apoptosis (upper right).
# We have further investigated the effect of SP101 in PLC26 lung cancer cells separated from the pleural effusion of a clinical lung cancer patient. To compare the cell viability of SP101 and Gefitinib in PLC26 cells, the cells were treated with 0˜40 μM SP101 or Gefitinib for 24 hours, and analyzed by MTT assays. Please refer to FIG. 21. […] The apoptosis levels of SP101 in PLC26 cells were analyzed by Annexin V and PI staining. The PLC26 cells were trypsinized and then incubated with propidium iodide (5 μl) and Annexin V-FITC (5 μl) at room temperature for 5 mins before flow cytometry. Please refer to FIG. 22.
# [1] = tested on: Survivin and cleaved-form Caspase 3 in H1975 cells; assay: Western blot and immunofluorescence of Survivin and cleaved Caspase 3 in H1975 cells; assay type: cell-based, human
# Source text: (§1) FIG. 5 is a result of immunofluorescence staining and confocal microscopy. The green color indicated location of Survivin protein excited with 488 nm. The β-tubulin protein was stained with Cy3-labeled mouse anti-β-tubulin antibody (red color). The fluorescence intensity of β-tubulin was excited with 543 nm and the emission was collected in range of 560-580 nm. Blue color indicated location of nuclei following stained with Hoechst 33258 and was excited with 405 nm and the emission was collected in range of 415-450 nm. Overlapping localization is shown in the merged images.
# as §1, with “FIG. 6” for “FIG. 5”, “of cleaved Caspase 3” for “of Survivin”
# Reduction of Survivin protein expression has shown to inhibit tumor growth in NSCLC. Please refer to FIG. 4. H1975 cells with EGFR (T790M) mutation were treated with or without SP101 (20˜30 μM for 24 hours) and analyzed by Western blot. […] Actin was an internal control protein.
# Further, immunofluorescence staining and confocal microscopy were utilized to determine the expression and cell morphology of Survivin and cleaved-form Caspase 3 after treatment with SP101 in H1975 cells with EGFR (T790M) mutation. The cells were treated with or without 30 μM of SP101 for 24 hours. At the end of treatment, the cells were fixed with 4% paraformaldehyde at 37 °C for 1 hour. The fixed cells were incubated with rabbit anti-Survivin antibody or rabbit anti-cleaved caspase-3 antibody at 4 °C overnight. Then the cells were stained with goat anti-rabbit IgG Dylight 488 at 37 °C for 1 hour. Please refer to FIGS. 5 and 6. The green fluorescence (Dylight 488) indicated location of Survivin and cleaved-form Caspase 3. The blue fluorescence (Hoechst 33258) and red fluorescence (Cy3) represented nucleus and β-tubulin respectively. Treatment with 30 μM SP101 for 24 hours, Survivin protein expression was reduced; in addition, the apoptotic bodies and cleaved-form Caspase 3 protein were induced.
# [2] = 30 μM for 24 hours, immunofluorescence and confocal microscopy
# [3] = 20~30 μM for 24 hours, Western blot
smiles,measurement,setting,value
"CCCCCCCCCCCCOC(=O)CCC(=O)N1CCN(CCCOc2cc3c(Nc4ccc(F)c(Cl)c4)ncnc3cc2OC)CC1 [SP101, dodecyl 4-(4-(3-(4-(3-chloro-4-fluorophenylamino)-7-methoxyquinazolin-6-yloxy)propyl)piperazin-1-yl)-4-oxobutanoate]",reduction of cell viability,A549 cells,more potent on the reduction of cell viability than Gefitinib
same,body weight of the nude mice,H1975 xenograft tumors; during the treatment period,did not alter
same,tumor growth,"H1975 xenograft tumors; H1975 xenograft in nude mice, 16 days",significantly inhibited
same,tumor weight,"H1975 xenograft tumors; H1975 xenograft in nude mice, after sacrifice at 16 days, compared with Gefitinib",more potent on the inhibition of tumor weight than Gefitinib
same,levels of Annexin V+/PI− cells (early apoptosis) and Annexin V+/PI+ cells (late apoptosis),PLC26 cells,significantly increased
same,Survivin protein expression,[1]; [2],reduced
same,apoptotic bodies and cleaved-form Caspase 3 protein,[1]; [2],induced
same,Survivin protein level,[1]; [3],reduced
same,apoptotic protein level of cleaved-form Caspase 3,[1]; [3],induced
